Results as given in ChEMBL document CHEMBL1136370, “Structure-activity relationship on human serum paraoxonase (PON1) using substrate analogues and inhibitors” (Bioorg Med Chem Lett, 2003).

Experiments:
[1] = Time taken for 50% to be consumed by serum PON1; NH is Not hydrolysed; assay type: ADME; details: human
[2] = target: T1, Serum paraoxonase/arylesterase 1 (Homo sapiens, UniProt P27169); assay: Inhibitory activity against human serum paraoxonase (PON1)
PON1 = assay: Time taken for 50% to be consumed by serum PON1 was determined; assay type: ADME; details: human
[3] = target: T1, Serum paraoxonase/arylesterase 1; assay: Inhibitory activity against human serum paraoxonase (PON1); Not active

T1 sequence (P27169 whole entry): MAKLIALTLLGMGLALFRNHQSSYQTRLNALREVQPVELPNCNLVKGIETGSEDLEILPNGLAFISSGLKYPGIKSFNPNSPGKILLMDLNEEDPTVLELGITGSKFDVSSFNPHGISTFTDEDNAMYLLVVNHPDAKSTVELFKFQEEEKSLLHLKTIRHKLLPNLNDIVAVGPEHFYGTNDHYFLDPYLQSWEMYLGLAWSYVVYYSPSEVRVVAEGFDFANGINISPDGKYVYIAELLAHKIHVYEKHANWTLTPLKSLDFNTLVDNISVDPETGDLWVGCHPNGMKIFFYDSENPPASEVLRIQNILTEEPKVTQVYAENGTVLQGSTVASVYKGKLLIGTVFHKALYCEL

Compound	T1/2 [1]	IC50 [2]	half-life (PON1)	IC50 [3]
CCOP(=O)(OCC)Oc1ccccc1 [PHOSPHORIC ACID DIETHYL ESTER PHENYL ESTER]	Not hydrolysed	3.27 mM	–	–
O=[N+]([O-])c1ccc(OP(=O)(O)O)cc1 [p-NITROPHENYLPHOSPHATE]	Not hydrolysed	18.5 mM	–	–
CC(=O)Oc1ccc(N)cc1	–	–	20 min	Not Active
CCOP(=O)(OCC)Oc1ccc([N+](=O)[O-])cc1 [PARAOXON]	–	–	1460 min	Not Active
COc1ccc(OC(C)=O)cc1	–	–	20 min	Not Active
CCOP(=O)(OCC)Oc1ccc(N)cc1	Not hydrolysed	1.28 mM	–	–
CC(=O)Oc1ccc([N+](=O)[O-])cc1 [4-NITROPHENYL ACETATE]	–	–	3.5 min	Not Active
O=P(O)(O)Oc1ccccc1 [PHENYL DIHYDROGEN PHOSPHATE]	Not hydrolysed	3.25 mM	–	–
CC(=O)Oc1ccccc1 [ACETIC ACID PHENYL ESTER]	–	–	1.5 min	Not Active
